Assay results taken from patent US8748376B2, “Stable formulations of peptides” (Novo Nordisk A/S, priority 2004, dated 2014).

Experiment: Thioflavine T stress test of heat treated liraglutide preparations
Format: physicochemical
Description: The physical stability of the liraglutide preparations was evaluated by the use of a florescence method; the Thioflavine T-test where the histological thiazole dye Thioflavine T (ThT) was used as an indicator of fibril formation. By the use of Thioflavine T-test it was possible to determine the presence of fibrils in the different formulations. The method was based on the fluorescent characteristics of ThT.
ThT was used in a stress test applying the different formulations in microtiter plates with ThT at 35° C. and shaken with 350 rpm until the formulations were fibrillated. Graphs of the fluorescence intensity (FI) as a function of time (sec) were obtained.

physical stability by increasing the temperature of heat treatment (from 22 to 50-80° C. at pH 9-10): significantly improved
physical stability as temperature of heat treatment was increased (heat treatment 22 to 80° C.): significantly improved
SMILES: CCCCCCCCCCCCCCCC(=O)N[C@@H](CCC(=O)NCCCC[C@H](NC(=O)[C@H](C)NC(=O)[C@H](C)NC(=O)[C@H](CCC(N)=O)NC(=O)CNC(=O)[C@H](CCC(=O)O)NC(=O)[C@H](CC(C)C)NC(=O)[C@H](Cc1ccc(O)cc1)NC(=O)[C@H](CO)NC(=O)[C@H](CO)NC(=O)[C@@H](NC(=O)[C@H](CC(=O)O)NC(=O)[C@H](CO)NC(=O)[C@@H](NC(=O)[C@H](Cc1ccccc1)NC(=O)[C@@H](NC(=O)CNC(=O)[C@H](CCC(=O)O)NC(=O)[C@H](C)NC(=O)[C@@H](N)Cc1cnc[nH]1)[C@@H](C)O)[C@@H](C)O)C(C)C)C(=O)N[C@@H](CCC(=O)O)C(=O)N[C@@H](Cc1ccccc1)C(=O)N[C@H](C(=O)N[C@@H](C)C(=O)N[C@@H](Cc1c[nH]c2ccccc12)C(=O)N[C@@H](CC(C)C)C(=O)N[C@H](C(=O)N[C@@H](CCCNC(=N)N)C(=O)NCC(=O)N[C@@H](CCCNC(=N)N)C(=O)NCC(=O)O)C(C)C)[C@@H](C)CC)C(=O)O [liraglutide, Arg^34, Lys^26(N^ε-(γ-Glu(N^α-hexadecanoyl)))-GLP-1(7-37)]
physical stability, time of heat treatment (60 and 80° C., 120 minutes in comparison to 1 minute of heat treatment): improve the physical stability significantly
physical stability, time of heat treatment (pH 9-10, all temperatures, 15 to 20 minutes compared to 1 minute of heat treatment): improve the physical stability significantly
